Results taken from patent US8377942B2, “Isoxazolines derivatives and their use as pesticide” (Novartis AG, priority 2008, dated 2013).

System: Rhipicephalus sanguineus nymphs
Test: Activity in vivo against Rhipicephalus sanguineus nymphs on Mongolian gerbils (spray application)
Settings: Dose 100 mg/kg, tick number reduction vs placebo (Abbot's formula), 7 days after infestation
Description: 3. Activity In Vivo Against Rhipicephalus sanguineus Nymphs on Mongolian Gerbils (Meriones unguiculatus) (Spray Application) On day 0, gerbils are treated with the test compound at a given dose by spray application. On day +1, the animals are infested with nymphs of R. sangineus. Ticks are left on the animals until full repletion. Seven days after infestation nymphs dropped off fully engorged are collected and counted. Efficacy in killing is expressed as a tick number reduction in comparison with a placebo treated group using the Abbot's formula.

FC(F)(F)C1(c2cc(Cl)cc(Cl)c2)CC(c2ccc(-n3cncn3)c3ccccc23)=NO1 (stereo not drawn) [Compound 1.1, 1-{4-[5-(3,5-dichloro-phenyl)-5-trifluoromethyl-4,5-dihydro-isoxazol-3-yl]-naphthalen-1-yl}-1H-[1,2,4]triazole]
Efficacy (%): 85%

FC(F)(F)C1(c2cc(Cl)cc(Cl)c2)CC(c2ccc(-c3cn(Cc4ccccn4)nn3)c3ccccc23)=NO1 (stereo not drawn) [Compound 1.27, 2-(4-{4-[5-(3,5-dichloro-phenyl)-5-trifluoromethyl-4,5-dihydro-isoxazol-3-yl]-naphthalen-1-yl}-[1,2,3]triazol-1-ylmethyl)-pyridine]
Efficacy (%): 79%

O=C(NCc1cn(-c2ccc(C3=NOC(c4cc(Cl)cc(Cl)c4)(C(F)(F)F)C3)c3ccccc23)nn1)c1ccncc1 (stereo not drawn) [Compound 1.61, N-(1-{4-[5-(3,5-dichloro-phenyl)-5-trifluoromethyl-4,5-dihydro-isoxazol-3-yl]-naphthalen-1-yl}-1H-[1,2,3]triazol-4-ylmethyl)-isonicotinamide]
Efficacy (%): 96%
